The test system of the experiment is epileptic patients. The experiment can be described thus: Clinical trial: seizure frequency in epileptic patients on valproate with added L-carnitine. It counts as in vivo. As to conditions: 45 patients treated only with valproate for at least six months, then valproate and L-carnitine for at least one year; compared with the pre-treatment period (valproate only). Pre-carnitine vs greater than 12 months p<0.001; start-6 months vs greater than 12 months p=0.0001; 6-12 months vs greater than 12 months p=0.0001. As to the method:
Fortyfive patients, 20 females and 25 males, mean age 24.5±8.48 years, were included in the study.
Some patients had more than one seizure type.
All of the patients had been treated only with valproate for at least six months.
Subsequently, they were treated with both valproate and L-carnitine for at least one year.
At intervals L-carnitine activity was assessed on some parameters including seizure frequency, in comparison with the pre-treatment period (valproate only, no L-carnitine). The intervals selected for all the controls were: between the start to 6 months of L-carnitine therapy, […], and L-carnitine therapy greater than 12 months.
Parameter assessment was not carried out at prefixed dates but within the 0-6, 6-12 and greater than 12 month periods in order to evaluate the seizure frequency over a sufficiently extended time period.

The structures appear in SMILES notation.

As for `C[N+](C)(C)C[C@H](O)CC(=O)[O-]` [L-carnitine], the seizure frequency entry is “decreased progressively and steadily”.

Values taken from patent publication EP0637449A1, “Use of L-carnitine or acyl L-carnitines and valproate for treating seizure disorders” (Sigma-Tau Industrie Farmaceutiche Riunite S.p.A., priority 1993, dated 1995).
